The source of these data is patent US8883963B2 (Cadila Healthcare Limited, priority 2007, dated 2014).

The subject of this test is RIN5F (Rat Insulinoma) cells. Description: In vitro glucose-dependent insulin secretion (RIN5F cell assay screening protocol). The settings on record: 16.7 mM glucose load. The format is cell-based. The protocol:
RIN5F (Rat Insulinoma) cells were cultured in RPMI 1640 medium supplemented with sodium pyruvate (1 mM) HEPES and Glucose (4.5 g/L) in a humidified incubator (5% CO2), at 37° C. After trypsinization, RIN5F cells were seeded at a concentration of 0.2×10^6 cells per well, in 12 well plates.
The buffer was replaced after 40 min. and the cells were incubated (37° C.) with the test peptidomimetics, at different concentration, for 30 min., both in the presence (16.7 mM) and absence (0 mM) of glucose load. The supernatant was collected and the insulin amount was measured by ultra sensitive Rat insulin ELISA kit (Crystal Chem, IL). The protein was estimated in the supernatant using Bicinchoninic Acid kit, according to the manufacturer's protocol (Sigma Aldrich, MO). The total insulin content obtained in Pico-gram (pg) was divided with the total protein (μg) in order to normalize for differences in cell density between wells.

Molecules are shown by their SMILES. Starred links: 1 amine or outer side, 2 acyl side, 3 side chain; linkers in the order of their positions; H or OH if unused. Non-standard residues stand in square brackets, D forms with d. Residues, ends and D or L forms follow the SMILES beside them. ξ: configuration not given here. ξBip(2'-Et-4'-OMe) = CCc1cc(OC)ccc1-c1ccc(CC(N)C(=O)O)cc1; X6 = O=C(C(CCCc1ccc(Cl)cc1Cl)N[*:1])[*:2]; X10 = O=C(C(CCCc1ccc(F)cc1F)N[*:1])[*:2]; ξbishPhe(2-F) = NC(CCCc1ccccc1F)C(=O)O; ξαMePhe(2-F) = CC(N)(Cc1ccccc1F)C(=O)O; aThr = C[C@H](O)[C@H](N)C(=O)O; ξhhPhe = NC(CCCc1ccccc1)C(=O)O; ξAbu(4-CN) = N#CCCC(N)C(=O)O; Ac5c = NC1(C(=O)O)CCCC1; Aib = CC(C)(N)C(=O)O

As for `CCc1cc(OC)ccc1-c1ccc(CC(NC(=O)[C@H](CC(=O)O)NC(=O)[C@H](CO)NC(=O)[C@@H](NC(=O)[C@H](Cc2ccccc2)NC(=O)[C@@H](NC(=O)CNC(=O)[C@H](CCC(N)=O)NC(=O)[C@H](CO)NC(=O)[C@@H](N)Cc2c[nH]cn2)[C@@H](C)O)[C@@H](C)O)C(=O)NC(CCCc2ccc(F)cc2C(F)(F)F)C(N)=O)cc1` (single isomer, unassigned) [compound 48], the Insulin secretion reads like this: (0.1 nM test compd.) 12.9 ± 0.14 pg/µg/h; (1 nM test compd.) 15.8 ± 0.13 pg/µg/h; (10 nM test compd.) 29.9 ± 0.15 pg/µg/h.

Turning to `CCc1cc(OC)ccc1-c1ccc(CC(NC(=O)[C@H](CC(=O)O)NC(=O)[C@H](CO)NC(=O)[C@@H](NC(=O)C(C)(Cc2ccccc2F)NC(=O)[C@@H](NC(=O)CNC(=O)[C@H](CCC(N)=O)NC(=O)C(C)(C)NC(=O)[C@H](Cc2c[nH]cn2)NC(C)=O)[C@H](C)O)[C@H](C)O)C(=O)NC(CCCc2ccccc2)C(N)=O)cc1` (single isomer, unassigned) [compound 101], the Insulin secretion amounted to 12.4 ± 0.22 pg/µg/h (0.1 nM test compd.), 15.2 ± 0.32 pg/µg/h (1 nM test compd.) and 29.6 ± 0.50 pg/µg/h (10 nM test compd.).

As to `CCc1cc(OC)ccc1-c1ccc(CC(NC(=O)[C@H](CC(=O)O)NC(=O)[C@H](CO)NC(=O)[C@@H](NC(=O)C(C)(Cc2ccccc2F)NC(=O)[C@@H](NC(=O)CNC(=O)[C@H](CCC(N)=O)NC(=O)C(C)(C)NC(=O)[C@H](Cc2c[nH]cn2)NC(C)=O)[C@H](C)O)[C@H](C)O)C(=O)NC(CCCc2ccccc2F)C(N)=O)cc1` (single isomer, unassigned) [compound 103], the Insulin secretion came to 12.1 ± 0.51 pg/µg/h (0.1 nM test compd.), 14.1 ± 0.19 pg/µg/h (1 nM test compd.) and 28.1 ± 0.29 pg/µg/h (10 nM test compd.).

For `CCc1cc(OC)ccc1-c1ccc(CC(NC(=O)[C@H](CC(=O)O)NC(=O)[C@H](CO)NC(=O)[C@@H](NC(=O)C(C)(Cc2ccccc2F)NC(=O)[C@@H](NC(=O)CNC(=O)[C@H](CC(C(F)(F)F)C(F)(F)F)NC(=O)C(C)(C)NC(=O)[C@@H](N)Cc2c[nH]cn2)[C@@H](C)O)[C@@H](C)O)C(=O)NC(CCCc2cc(C)cc(C)c2)C(N)=O)cc1` (single isomer, unassigned) [compound 235], the Insulin secretion was found to be 12.6 ± 0.25 pg/µg/h (0.1 nM test compd.), 15.3 ± 0.31 pg/µg/h (1 nM test compd.) and 29.7 ± 0.48 pg/µg/h (10 nM test compd.).

With `CCc1cc(OC)ccc1-c1ccc(CC(NC(=O)[C@H](CC(=O)O)NC(=O)[C@H](CO)NC(=O)[C@@H](NC(=O)[C@H](Cc2ccccc2)NC(=O)[C@@H](NC(=O)CNC(=O)[C@H](CCC(N)=O)NC(=O)C2(NC(=O)[C@@H](N)Cc3c[nH]cn3)CCCC2)[C@@H](C)O)[C@@H](C)O)C(=O)NC(CCCc2ccccc2)C(N)=O)cc1` (stereo partly drawn) [compound 25] (H-H[Ac5c]QGTFTSD[ξBip(2'-Et-4'-OMe)][ξhhPhe]-NH2), the Insulin secretion (0.1 nM test compd.) was found to be 15.6 ± 0.30 pg/µg/h, the Insulin secretion (1 nM test compd.) amounted to 21.8 ± 0.11 pg/µg/h and the Insulin secretion (10 nM test compd.) is 35.6 ± 0.20 pg/µg/h.

Take `CCc1cc(OC)ccc1-c1ccc(CC(NC(=O)[C@H](CC(=O)O)NC(=O)[C@H](CO)NC(=O)[C@@H](NC(=O)[C@H](Cc2ccccc2)NC(=O)[C@@H](NC(=O)CNC(=O)[C@H](CCC(N)=O)NC(=O)[C@H](CO)NC(=O)[C@@H](N)Cc2c[nH]cn2)[C@@H](C)O)[C@@H](C)O)C(=O)NC(CCCc2ccc(F)cc2F)C(N)=O)cc1` (stereo partly drawn) [compound 46] (H-HSQGTFTSD[ξBip(2'-Et-4'-OMe)][X10]-NH2): the Insulin secretion by setting is: (0.1 nM test compd.) 12.7 ± 0.21 pg/µg/h; (1 nM test compd.) 15.8 ± 0.33 pg/µg/h; (10 nM test compd.) 29.3 ± 0.19 pg/µg/h.

Turning to `CCc1cc(OC)ccc1-c1ccc(CC(NC(=O)[C@H](CC(=O)O)NC(=O)[C@H](CO)NC(=O)[C@@H](NC(=O)[C@H](Cc2ccccc2)NC(=O)[C@@H](NC(=O)CNC(=O)C(CCC#N)NC(=O)C(C)(C)NC(=O)[C@@H](N)Cc2c[nH]cn2)[C@@H](C)O)[C@@H](C)O)C(=O)NC(CCCc2ccc(Cl)cc2Cl)C(N)=O)cc1` (stereo partly drawn) [compound 83] (H-H[Aib][ξAbu(4-CN)]GTFTSD[ξBip(2'-Et-4'-OMe)][X6]-NH2), the Insulin secretion (0.1 nM test compd.) was found to be 12.3 ± 0.33 pg/µg/h, the Insulin secretion (1 nM test compd.) came to 14.1 ± 0.36 pg/µg/h and the Insulin secretion (10 nM test compd.) amounted to 28.0 ± 0.16 pg/µg/h.

Consider `CCc1cc(OC)ccc1-c1ccc(CC(NC(=O)[C@H](CC(=O)O)NC(=O)[C@H](CO)NC(=O)[C@@H](NC(=O)C(C)(Cc2ccccc2F)NC(=O)[C@@H](NC(=O)CNC(=O)[C@H](CCC(N)=O)NC(=O)C(C)(C)NC(=O)[C@@H](N)Cc2c[nH]cn2)[C@@H](C)O)[C@@H](C)O)C(=O)NC(CCCc2ccccc2F)C(N)=O)cc1` (stereo partly drawn) [compound 85] (H-H[Aib]QGT[ξαMePhe(2-F)]TSD[ξBip(2'-Et-4'-OMe)][ξbishPhe(2-F)]-NH2), for which the Insulin secretion is, setting by setting: (0.1 nM test compd.) 11.9 ± 0.17 pg/µg/h; (1 nM test compd.) 14.2 ± 0.13 pg/µg/h; (10 nM test compd.) 27.6 ± 0.16 pg/µg/h.

As for `CCc1cc(OC)ccc1-c1ccc(CC(NC(=O)[C@H](CC(=O)O)NC(=O)[C@H](CO)NC(=O)[C@@H](NC(=O)C(C)(Cc2ccccc2F)NC(=O)[C@@H](NC(=O)CNC(=O)[C@H](CCC(N)=O)NC(=O)C(C)(C)NC(=O)[C@@H](N)Cc2c[nH]cn2)[C@@H](C)O)[C@@H](C)O)C(=O)NC(CCCc2ccc(F)cc2F)C(N)=O)cc1` (stereo partly drawn) [compound 86] (H-H[Aib]QGT[ξαMePhe(2-F)]TSD[ξBip(2'-Et-4'-OMe)][X10]-NH2), the Insulin secretion reads like this: (0.1 nM test compd.) 12.3 ± 0.33 pg/µg/h; (1 nM test compd.) 14.8 ± 0.16 pg/µg/h; (10 nM test compd.) 28.1 ± 0.22 pg/µg/h.

As to `CCc1cc(OC)ccc1-c1ccc(CC(NC(=O)[C@H](CC(=O)O)NC(=O)[C@H](CO)NC(=O)[C@@H](NC(=O)C(C)(Cc2ccccc2F)NC(=O)[C@@H](NC(=O)CNC(=O)[C@H](CCC(N)=O)NC(=O)C(C)(C)NC(=O)[C@@H](N)Cc2c[nH]cn2)[C@H](C)O)[C@@H](C)O)C(=O)NC(CCCc2ccccc2)C(N)=O)cc1` (stereo partly drawn) [compound 109] (H-H[Aib]QG[aThr][ξαMePhe(2-F)]TSD[ξBip(2'-Et-4'-OMe)][ξhhPhe]-NH2), the Insulin secretion is 12.6 ± 0.25 pg/µg/h (0.1 nM test compd.), 15.3 ± 0.31 pg/µg/h (1 nM test compd.) and 29.7 ± 0.48 pg/µg/h (10 nM test compd.).

For the compound `CCc1cc(OC)ccc1-c1ccc(CC(NC(=O)[C@H](CC(=O)O)NC(=O)[C@H](CO)NC(=O)[C@@H](NC(=O)C(C)(Cc2ccccc2F)NC(=O)[C@@H](NC(=O)CNC(=O)[C@H](CCC(N)=O)NC(=O)C(C)(C)NC(=O)[C@@H](N)Cc2c[nH]cn2)[C@H](C)O)[C@@H](C)O)C(=O)NC(CCCc2ccccc2F)C(N)=O)cc1` (stereo partly drawn) [compound 111] (H-H[Aib]QG[aThr][ξαMePhe(2-F)]TSD[ξBip(2'-Et-4'-OMe)][ξbishPhe(2-F)]-NH2), the Insulin secretion is, setting by setting: (0.1 nM test compd.) 16.2 ± 0.20 pg/µg/h; (1 nM test compd.) 22.2 ± 0.20 pg/µg/h; (10 nM test compd.) 36.1 ± 0.31 pg/µg/h.
